Molecules are shown by their SMILES. Read-outs that look alike come from different tables or passages of the source.

What is called AC50 is the concentration giving half of the maximal activity seen. A word on the IC50: it is the concentration that inhibits the measured activity by half.

Common to all, as to assay type: cell-based
One assay has as its system NCI-H358. The assay can be described thus: 10-day Cell Titre Glo combination screen. Particulars: Homo sapiens; NCI-H358 lung; monotherapy; read-out: mono AC50. The gist of the method:
(§1)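 Cells were exposed to pairwise drug combinations in a 6×6 dose matrix for 10 days, and viability was read by CellTiter-Glo ATP luminescence. Values were normalised to day-zero and DMSO controls, with synergy scored against a Highest Single Agent model (HSA Volume) and as combination index at a chosen iso-effect level.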

A further assay has as its system JIMT-1. The assay can be described thus: 10-day Cell Titre Glo combination screen. Particulars: Homo sapiens; JIMT-1 breast; monotherapy; read-out: mono AC50. The method in brief: as §1
A further assay deals with NCI-H1993. Put plainly: 10-day Cell Titre Glo combination screen. The note with it: Homo sapiens; NCI-H1993 lung; monotherapy; read-out: mono AC50. The gist of the method:
as §1

In another assay the test system is HCC1806. The assay can be described thus: 10-day Cell Titre Glo combination screen. Particulars: Homo sapiens; HCC1806 breast; monotherapy; read-out: mono AC50. The gist of the method:
as §1

A further assay deals with DU4475. Put plainly: 10-day Cell Titre Glo combination screen. The note with it: Homo sapiens, DU-4475; DU4475 breast; monotherapy; read-out: mono AC50. The gist of the method:
as §1

For a further assay, the system named is NCI-H3122. The assay can be described thus: 10-day Cell Titre Glo combination screen. The note with it: monotherapy, read-out: mono AC50. The gist of the method:
as §1

In another assay the test system is BT-20. Put plainly: 10-day Cell Titre Glo combination screen. Particulars: Homo sapiens; BT-20 breast; monotherapy; read-out: mono AC50. The gist of the method:
as §1

A further assay relates to LU99. The assay can be described thus: 10-day Cell Titre Glo combination screen. The note with it: Homo sapiens, Lu-99; LU99 lung; monotherapy; read-out: mono AC50. The method in brief: as §1
Another assay has as its system Calu-1. The assay can be described thus: 10-day Cell Titre Glo combination screen. Particulars: monotherapy, read-out: mono AC50. The gist of the method:
as §1

Another assay relates to HCC1395. Put plainly: 10-day Cell Titre Glo combination screen. Particulars: Homo sapiens; HCC1395 breast; monotherapy; read-out: mono AC50. The method in brief:
as §1

For a further assay, the system named is MDA-MB-134IV. The assay can be described thus: 10-day Cell Titre Glo combination screen. Particulars: MDA-MB-134IV breast; monotherapy; read-out: mono AC50. The gist of the method:
as §1

Assay [1] has as its system SUM149PT 53BP1 WT (CNTR) cells. Put plainly: Clonogenic proliferation assay (14 days, SRB). Particulars: Homo sapiens; SUM149PT CNTR; monotherapy; read-out: IC50, clonogenic growth. On the procedure: (§2) Parental BRCA1 mutant SUM149PT breast cancer cell line (Elstrodt 2006) were obtained from AstraZeneca Cell Bank at Alderley Park, Macclesfield. Cells were routinely grown in Ham's F12 media containing 5% foetal calf serum, 1% glutamine (2 mM), 500 ng/ml hydrocortisone and 5% insulin. SUM149PT 53BP1 WT (CNTR) and 53BP1 null (KO) cell pools were generated by CRISPR-Cas9 technology. Short guide (sg) RNA targeting TP53BP1 on exon 10 (GAGTAGATCGGAAAGCATC) and a non-targeting CNTR guide (GAGTAGATCGGAAAGCATC) were designed and cloned into a lentiviral vector containing a mClover3 cassette for green fluorescence signal and hygromycin cassette for selection (pKLV2-U6gRNA (Bbsl)-EF1a-mClover3-T2A-HygR-W). Lentiviruses were generated from both KO and CNTR (sg) RNA and Cas9 (pKLVEF1a-Cas9Bsd-W) plasmids and parental cells were transduced first with Cas9 lentiviruses followed by blasticidin selection and then with KO and CNTR lentiviruses followed by hygromycin selection. Loss of 53BP1 was verified by analysing 53BP1 protein expression from whole cell lysates by western blotting (Novus, NB100-304, 1:1000 dilution).
(§3) Cells were seeded onto 6-well plates, three replicates per cell line, and 24 hours later the cells were dosed with AZD6738/AZD5305. For monotherapies the cells were dosed with a 6-point concentration response of AZD6738 (0 to 0.64 μM) or AZD5305 (0 to 1 μM). For combination treatments single dose of AZD5305 (10 nM) was used with a 5-point concentration response of AZD6738 (0 to 0.64 μM) for 53BP1 KO cells. Cells were grown for 14 days for colony formation without media changes. Cells were fixed with 10% TCA (Tricloroacetic acid). 14 days after dosing any formed colonies were stained with 0.057% SRB (sulforhodamine B acid), imaged with GelCount™ (Oxford OPTRONIX) at 600 dpi resolution and the stained colony growth intensity was measured using plate reader with OD @[…]. Dose response curves were generated and IC50 concentrations were calculated using GraphPad PRISM software.

For assay [2], the system named is SUM149PT 53BP1 KO cell pools. The assay can be described thus: Clonogenic proliferation assay (14 days, SRB). The note with it: Homo sapiens; SUM149PT 53BP1 KO; monotherapy; read-out: IC50, clonogenic growth. On the procedure:
as §2, §3

On to `C[C@@H]1COCCN1c1cc(C2([S@](C)(=N)=O)CC2)nc(-c2ccnc3[nH]ccc23)n1` [AZD6738, 4-{4-[(3R)-3-Methylmorpholin-4-yl]-6-[1-((R)—S-methylsulfonimidoyl)cyclopropyl]pyrimidin-2-yl}-1H-pyrrolo[2,3-b]-pyridine], for which the AC50 in the assay with NCI-H358 stood at 2.67 µM; in the assay with JIMT-1, 0.869 µM; with NCI-H1993, 2.97 µM; with HCC1806 it was 0.412 µM; in the assay on DU4475, 3.25 µM; in the assay with NCI-H3122 (Homo sapiens, NCI-H3122, NCI-H3122 lung), 3.12 µM. Moreover, the AC50 in the assay with NCI-H3122 (NCI-H3122 lung) was 3.21 µM; in the assay with BT-20, 0.723 µM; with LU99 it was 0.581 µM; in the assay on Calu-1 (Calu-1 lung) it was 5.6 µM; with Calu-1 (Homo sapiens, Calu-1, Calu-1 lung) it was 3.22 µM; in the assay on HCC1395, 0.814 µM. The AC50 in the assay on MDA-MB-134IV stood at 5.78 µM. Further, the IC50 in assay [1] and in assay [2] was roughly 0.63 µM in each case.

The record behind these values is US20250352539A1, “COMBINATION THERAPY FOR TREATING CANCER” (AstraZeneca AB, priority 2022, published 2025).
